Measured values from paper PMC9482650, “Quantitative fragmentomics allow affinity mapping of interactomes” (Nature Communications, 2022).
Ends that are not written are not given here. * marks the point of attachment. Biotin = O=C1N[C@H]2[C@H](CS[C@H]2CCCCC(=O)*)N1; ttds = NCCCOCCOCCOCCCNC(=O)CCC(=O)*

How the values were obtained:
HeLa cell extract preys = experiment: PBM-AP-MS, PBM peptide baits; assay type: binding, human
Protocol: (§1) HEK293T and HeLa cells were authenticated and found 100% identity to ATCC cat. CRL-3216 and ATCC cat. CCL-2, respectively. Jurkat and HaCat cell lines were not authenticated (original source: ECACC and Deutsches Krebsforschungszentrum DKFZ, respectively). HeLa cells were grown in DMEM (1 g/L glucose, Gibco) medium completed with 5% FCS and 40 μg/mL gentamicin, diluted every 3rd/4th day 1/10. HaCat cells were grown in DMEM (1 g/L glucose, Gibco) medium completed with 10% FCS and 40 μg/mL gentamicin, diluted every 3rd/4th day 1/4. Jurkat cells were grown in RPMI (Gibco) medium completed with 10% FCS and 40 μg/mL gentamicin, diluted every 3rd/4th day 1/12. All cells were kept at 37 °C and 5% CO2. For proteomics analyses cells were seeded on T-175 flasks. After they reached confluency, adherent cells were washed with PBS once and collected by scraping with ice-cold lysis buffer (Hepes-KOH pH 7.5 50 mM, NaCl 150 mM, Triton X-100 1%, complete EDTA-free protease inhibitor cocktail 1×, EDTA 2 mM, TCEP 5 mM, glycerol 10%). Jurkat cells were collected by 1000 g × centrifugation, washed once with PBS, then collected by 1000 g × 5 min centrifugation again and lysed in ice-cold lysis buffer. Lysates were sonicated 4 × 20 s with 1 s long pulses on ice, then incubated rotating at 4 °C for 30 min. Lysates were centrifuged at 12,000 rpm 4 °C for 20 min and supernatant was kept for further analysis. Concentration determination was carried out by standard Bradford method (Bio-Rad Protein Assay Dye Reagent #5000006) using BSA (MP BIomedicals #160069) as control on a Bio-Rad SmartSpec 3000 spectrophotometer instrument.
(§2) For PBM-AP-MS experiments, 30 μl streptavidin resin was mixed with biotin or peptide at 50–60 μM concentration in 6–6.5 resin volume for 60 min to achieve resin saturation. For PDZ-AP-MS experiments, 30 μl streptavidin resin was mixed with biotinylated MBP or MBP-PDZ at 40-50 μM concentration in >1000× resin volume for 60 min to achieve resin saturation. After saturation, resins were washed a single time (ten resin volume, holdup buffer), and were depleted with biotin (1 mM biotin, 5–10 resin volume, 10 min). Finally, resins were washed two times. 0.5 ml 2 mg/ml cell lysate was added to the dry resin (1 mg total input) and were incubated at 4 °C for 2 h. Then, the beads were washed three times with 10 resin volume buffer containing: 50 mM TRIS pH 8.5, 150 mM NaCl, 1% TritonX-100, 10× complete EDTA-free protease inhibitor cocktail, 2 mM EDTA, 1 mM TCEP. Then, the beads were washed two times with ten resin volume buffer containing: 50 mM TRIS pH 8.5, 150 mM NaCl, 1 mM TCEP. Finally, captured protein was eluted from the resin in two steps and the eluted fractions were pooled. For each elution the beads were incubated for 30 min with three resin volume buffer containing: 20 mM TRIS pH8.5, 100 mM NaCl, 500 μM TCEP, 8 M Urea. Between each step, the beads were separated by mild centrifugation and the supernatant was removed by gentle pipetting.
(§3) The samples were precipitated with TCA 20% overnight at 4 °C and centrifuged at 14,000 rpm for 10 min at 4 °C. The protein pellets were washed twice with 1 mL cold acetone and air dried. The protein extracts were solubilized in urea 8 M, reduced with 5 mM TCEP for 30 min, and alkylated with 10 mM iodoacetamide for 30 min in the dark. Double digestion was performed at 37 °C with 500 ng endoproteinase Lys-C for 4 h, followed by fourfold dilution and an overnight digestion with 500 ng trypsin. Peptide mixtures were then desalted on C18 spin-column and dried on Speed-Vacuum.
(§4) Samples were analyzed using an Ultimate 3000 nano-RSLC (Thermo Scientific, San Jose California) coupled in line with a LTQ-Orbitrap ELITE mass spectrometer via a nano-electrospray ionization source (Thermo Scientific, San Jose California). […]

[1] = test system: Jurkat cell extract preys; experiment: PBM-AP-MS, PBM peptide baits; assay type: binding, human
Protocol: as §1, §2, §3, §4

Substance: HPV35E6 ({Biotin-ttds}-SKPTRRETEV)
- Enrichment values compared to biotin controls (HeLa cell extract preys; prey AHNAK, PBM peptide bait): 0.9
- Enrichment values compared to biotin controls (HeLa cell extract preys; prey ARHGAP21, PBM peptide bait): 1.3
- Enrichment values compared to biotin controls (HeLa cell extract preys; prey ARHGEF12, PBM peptide bait): 1.1
- Enrichment values compared to biotin controls (HeLa cell extract preys; prey CASK, PBM peptide bait): 4.9
- Enrichment values compared to biotin controls (HeLa cell extract preys; prey DLG1, PBM peptide bait): 6.4
- Enrichment values compared to biotin controls (HeLa cell extract preys; prey DLG3, PBM peptide bait): 5.8
- Enrichment values compared to biotin controls (HeLa cell extract preys; prey DLG5, PBM peptide bait): 1.3
- Enrichment values compared to biotin controls (HeLa cell extract preys; prey DVL2, PBM peptide bait): 0.8
- Enrichment values compared to biotin controls (HeLa cell extract preys; prey GOPC, PBM peptide bait): 1.4
- Enrichment values compared to biotin controls (HeLa cell extract preys; prey HTRA1, PBM peptide bait): 2.0
- Enrichment values compared to biotin controls (HeLa cell extract preys; prey InaDl, PBM peptide bait): 1.3
- Enrichment values compared to biotin controls (HeLa cell extract preys; prey LAP2, PBM peptide bait): 1.4
- Enrichment values compared to biotin controls (HeLa cell extract preys; prey LIN7C, PBM peptide bait): 131.1
- Enrichment values compared to biotin controls (HeLa cell extract preys; prey LMO7, PBM peptide bait): 2.0
- Enrichment values compared to biotin controls (HeLa cell extract preys; prey MPDZ, PBM peptide bait): 2.5
- Enrichment values compared to biotin controls (HeLa cell extract preys; prey MPP5, PBM peptide bait): 4.0
- Enrichment values compared to biotin controls (HeLa cell extract preys; prey MPP6, PBM peptide bait): 1.1
- Enrichment values compared to biotin controls (HeLa cell extract preys; prey MPP7, PBM peptide bait): 11.7
- Enrichment values compared to biotin controls (HeLa cell extract preys; prey NHERF2, PBM peptide bait): 0.9
- Enrichment values compared to biotin controls (HeLa cell extract preys; prey NHERF3, PBM peptide bait): 0.9
- Enrichment values compared to biotin controls (HeLa cell extract preys; prey PDLIM5, PBM peptide bait): 0.8
- Enrichment values compared to biotin controls (HeLa cell extract preys; prey PDLIM7, PBM peptide bait): 0.9
- Enrichment values compared to biotin controls (HeLa cell extract preys; prey PSMD9, PBM peptide bait): 0.6
- Enrichment values compared to biotin controls (HeLa cell extract preys; prey SCRIB, PBM peptide bait): 217.5
- Enrichment values compared to biotin controls (HeLa cell extract preys; prey SIPA1L1, PBM peptide bait): 0.5
- Enrichment values compared to biotin controls (HeLa cell extract preys; prey SNTA1, PBM peptide bait): 0.5
- Enrichment values compared to biotin controls (HeLa cell extract preys; prey SNTB1, PBM peptide bait): 8.8
- Enrichment values compared to biotin controls (HeLa cell extract preys; prey SNTB2, PBM peptide bait): 48.7
- Enrichment values compared to biotin controls (HeLa cell extract preys; prey SNX27, PBM peptide bait): 1.4
- Enrichment values compared to biotin controls (HeLa cell extract preys; prey SYNJ2BP, PBM peptide bait): 63.6
- Fold changes HeLa, SYNJ2BP (HeLa cell extract preys; prey SYNJ2BP, PBM peptide bait): 63.6
- Enrichment values compared to biotin controls (HeLa cell extract preys; prey TJP1, PBM peptide bait): 0.9
- Enrichment values compared to biotin controls (HeLa cell extract preys; prey TX1B3, PBM peptide bait): 15.3
- Enrichment values compared to biotin controls ([1]; prey APBA1, PBM peptide bait): 2.9
- Enrichment values compared to biotin controls ([1]; prey DLG4, PBM peptide bait): 3.9
- Enrichment values compared to biotin controls ([1]; prey DVL2, PBM peptide bait): 1.1
- Enrichment values compared to biotin controls ([1]; prey GOPC, PBM peptide bait): 1.3
- Enrichment values compared to biotin controls ([1]; prey InaDl, PBM peptide bait): 0.9
- Enrichment values compared to biotin controls ([1]; prey LAP2, PBM peptide bait): 2.0
- Enrichment values compared to biotin controls ([1]; prey LNX2, PBM peptide bait): 0.8
- Enrichment values compared to biotin controls ([1]; prey MAGI3, PBM peptide bait): 3.7
- Enrichment values compared to biotin controls ([1]; prey MPP1, PBM peptide bait): 1.3
- Enrichment values compared to biotin controls ([1]; prey MPP5, PBM peptide bait): 1.4
- Enrichment values compared to biotin controls ([1]; prey MPP6, PBM peptide bait): 1.4
- Enrichment values compared to biotin controls ([1]; prey MPP7, PBM peptide bait): 2.9
- Enrichment values compared to biotin controls ([1]; prey MYO18A, PBM peptide bait): 0.9
- Enrichment values compared to biotin controls ([1]; prey PDLIM2, PBM peptide bait): 1.7
- Enrichment values compared to biotin controls ([1]; prey PDLIM5, PBM peptide bait): 0.851
- Enrichment values compared to biotin controls ([1]; prey PDLIM7, PBM peptide bait): 1.2
- Enrichment values compared to biotin controls ([1]; prey PDZD11, PBM peptide bait): 1.8
- Enrichment values compared to biotin controls ([1]; prey PSMD9, PBM peptide bait): 0.748
- Enrichment values compared to biotin controls ([1]; prey SIPA1L1, PBM peptide bait): 1.1
- Enrichment values compared to biotin controls ([1]; prey SIPA1L2, PBM peptide bait): 1.1
- Enrichment values compared to biotin controls ([1]; prey SNTB1, PBM peptide bait): 5.0
- Enrichment values compared to biotin controls ([1]; prey SNTB2, PBM peptide bait): 1.1
- Enrichment values compared to biotin controls ([1]; prey SNX27, PBM peptide bait): 2.9
- Enrichment values compared to biotin controls ([1]; prey SYNJ2BP, PBM peptide bait): 12.5
- Enrichment values compared to biotin controls ([1]; prey TX1B3, PBM peptide bait): 4.1
